Data on 39 compounds can be found in patent US7671054B1, “Reverse-turn mimetics and method relating thereto” (Choongwae Pharma Corporation, priority 2001, dated 2010).

For one assay, the system named is TCF4/β-catenin transcription (TOPFlash) in SW480 cells. As to the kind of experiment: Reporter gene assay (TOPFlash luciferase). The class given is cell-based. To be noted: Homo sapiens, SW480. As to the method: SW480 cells were transfected with the usage of Superfect™ transfect reagent (Qiagen, 301307). Cells were trypsinized briefly 1 day before transfection and plated on 6 well plate (5×10^5 cells/well) so that they were 50-80% confluent on the day of transfection.
Four microgram (TOPFlash) and one microgram (pRL-null) of DNAs were diluted in 150 μl of serum-free medium, and 30 μl of Superfect™ transfect reagent was added. The DNA-Superfect mixture was incubated at room temperature for 15 min, and then, 1 ml of 10% FBS DMEM was added to this complex for an additional 3 hours of incubation. While complexes were forming, cells were washed with PBS twice without antibiotics.
The DNA-Superfect™ transfect reagent complexes were applied to the cells before incubating at 37° C. at 5% CO2 for 3 hours. After incubation, recovery medium with 10% FBS was added to bring the final volume to 1.18 ml. After 3 hours incubation, the cells were harvested and reseeded to 96 well plate (3×10^4 cells/well). After overnight incubation at 37° C. at 5% CO2, the cells were treated with Compound A for 24 hours. Finally, the activity was checked by means of luciferase assay (Promega, E1960).
By IC50 is commonly meant the concentration that gives 50% inhibition. Compound `C=CCN1CC(=O)N2[C@@H](Cc3ccc(OC(=O)NCCN(C)C)cc3)C(=O)N(Cc3ccc(F)cc3F)C[C@@H]2N1C(=O)NCc1ccccc1` [Compound 173] showed an IC50 of 1.8 ± 0.2 µM.

The same assay, now with this note: Homo sapiens, SW480, Table 4; Reporter gene assay as described in Example 6; read-out: IC50.
Regarding `CN1CC(=O)N2C(CN(Cc3ccc(F)cc3)C(=O)[C@@H]2Cc2ccc(O)cc2)N1C(=O)NCc1ccccc1` (stereo partly drawn) [Compound 10], the IC50 was 4 µM.

Regarding `C=CCN1CC(=O)N2[C@@H](Cc3ccc(NC=O)cc3)C(=O)N(Cc3ccc(F)cc3F)C[C@@H]2N1C(=O)NCc1ccccc1` [Compound 159], the IC50 was determined as 2.7 ± 0.2 µM. Turning to `C=CCN1CC(=O)N2C(Cc3ccc(O)cc3)C(=O)N(Cc3ccc(F)cc3F)CC2N1C(=O)NCc1ccccc1` (stereo not drawn) [Compound 170], the IC50 is 1.5 ± 0.5 µM. Still for that read-out and setting: the figure for `CCN1CC(=O)N2[C@@H](Cc3ccc(O)cc3)C(=O)N(Cc3cccc4cccnc34)C[C@@H]2N1C(=O)NCc1ccccc1` [Compound 121] is 3 ± 0.4 µM; for `C=CCN1CC(=O)N2[C@@H](Cc3ccc(O)cc3)C(=O)N(Cc3cccc4scnc34)C[C@@H]2N1C(=O)NCc1ccc(Cl)c(Cl)c1` [Compound 210] it is 0.9 ± 0.1 µM. Regarding `CN1CC(=O)N2[C@@H](Cc3ccc(O)cc3)C(=O)N(Cc3cccc4ccccc34)C[C@@H]2N1C(=O)Nc1ccc(C(F)(F)F)cc1` [Compound 4], the IC50 came to 11.8 µM. Still for that read-out and setting: the result for `C=CCN1CC(=O)N2[C@@H](Cc3ccc(O)cc3)C(=O)N(Cc3ccc(Cl)c(N4CCOCC4)c3)C[C@@H]2N1C(=O)NCc1ccccc1` [Compound 139] reads 1.1 ± 0.1 µM; that for `C=CCN1CC(=O)N2[C@@H](Cc3ccc(O)cc3)C(=O)N(Cc3cccc4sc(C(=O)OCC)nc34)C[C@@H]2N1C(=O)NCc1ccccc1` [Compound 224], 5.4 ± 1 µM. On the same count and under the same terms, the result for `C=CCN1CC(=O)N2[C@@H](Cc3ccc(O)cc3)C(=O)N(Cc3cccc4sc(N5CCCCC5)nc34)C[C@@H]2N1C(=O)NCc1ccccc1` [Compound 218] reads 1.6 ± 1.2 µM; that for `C=CCN1CC(=O)N2[C@@H](Cc3ccc(O)cc3)C(=O)N(Cc3ccc4c(c3)OCCO4)C[C@@H]2N1C(=O)NCc1ccccc1` [Compound 187], 1.1 ± 0.2 µM.

For the compound `CN1CC(=O)N2[C@@H](Cc3ccc(O)cc3)C(=O)N(Cc3ccccc3OC(F)(F)F)C[C@@H]2N1C(=O)NCc1ccccc1` [Compound 30], the IC50 was found to be 7.5 µM. As for `C=CCN1CC(=O)N2[C@@H](Cc3ccc(O)cc3)C(=O)N(Cc3ccc(C)c(N4CCOCC4)c3)C[C@@H]2N1C(=O)NCc1ccccc1` [Compound 133], the concentration for half-maximal inhibition (IC50) was 3.5 ± 0.7 µM. `CN(C)CCn1ncc2cccc(CN3C[C@H]4N(C(=O)CN(C)N4C(=O)NCc4ccccc4)[C@@H](Cc4ccc(O)cc4)C3=O)c21` [Compound 87]: the IC50 came out at 8.1 ± 0.8 µM.

`CN(C)c1ccccc1CN1C[C@H]2N(C(=O)CN(C)N2C(=O)NCc2ccccc2)[C@@H](Cc2ccc(O)cc2)C1=O` [Compound 43]: the IC50 is 5.2 µM.

`CCOP(=O)(CC(=O)Nc1ccc(C[C@H]2C(=O)N(Cc3cccc4ccccc34)C[C@H]3N2C(=O)CN(C)N3C(=O)NCc2ccccc2)cc1)OCC` [Compound 84]: the half-maximal inhibitory concentration (IC50) was 46.7 ± 6.7 µM.

For `C=CCN1CC(=O)N2[C@@H](Cc3ccc(O)cc3)C(=O)N(Cc3cccc(OC)c3OC)C[C@@H]2N1C(=O)NCc1ccccc1` [Compound 214], the half-maximal inhibitory concentration (IC50) was found to be 0.6 ± 0.2 µM.

For `C#CCN1CC(=O)N2[C@@H](Cc3ccc(O)cc3)C(=O)N(Cc3ccc(Cl)c(N(C)C)c3)C[C@@H]2N1C(=O)NCc1ccccc1` [Compound 110], the IC50 is 3.8 ± 0.6 µM.

Regarding `C=CCN1CC(=O)N2C(CN(Cc3cccc(N(C)C)c3)C(=O)[C@@H]2Cc2ccc(O)cc2)N1C(=O)NCc1ccccc1` (single isomer, unassigned) [Compound 192], the concentration for half-maximal inhibition (IC50) is 1.3 ± 0.3 µM. Regarding `CN(C)c1cc(F)c(F)cc1CN1C[C@H]2N(C(=O)CN(C)N2C(=O)NCc2ccccc2)[C@@H](Cc2ccc(O)cc2)C1=O` [Compound 49], the IC50 was determined as 1.4 µM.

Consider `C=CCN1CC(=O)N2[C@@H](Cc3ccc(O)cc3)C(=O)N(Cc3cccc4c3N(C)CCO4)C[C@@H]2N1C(=O)NCc1ccccc1` [Compound 145], for which the IC50 is 0.3 ± 0.04 µM.

For the compound `C=CCN1CC(=O)N2[C@@H](Cc3ccc(OP(=O)(O)O)cc3)C(=O)N(Cc3ccc(OC)cc3)C[C@@H]2N1C(=O)NCc1ccccc1` [Compound 209], the IC50 came to 1.9 ± 0.5 µM. Still for that read-out and setting: the figure for `C=CCN1CC(=O)N2[C@@H](Cc3ccc(O)cc3)C(=O)N(Cc3cccc4cccnc34)C[C@@H]2N1C(=O)NCc1ccccc1` [Compound 128] is 0.4 ± 0.1 µM; for `CN1CC(=O)N2[C@@H](Cc3ccc(O)cc3)C(=O)N(Cc3cccc4cnn(Cc5ccccc5[N+](=O)[O-])c34)C[C@@H]2N1C(=O)NCc1ccccc1` [Compound 74] it is 2.1 ± 0.2 µM. Still for that read-out and setting: the result for `CN1CC(=O)N2[C@@H](Cc3ccc(O)cc3)C(=O)N(Cc3ccc(Cl)cc3)C[C@@H]2N1C(=O)NCc1ccccc1` [Compound 28] reads 7.5 µM.

As to `C#CCNC(=O)N1[C@H]2CN(Cc3cccc4ccccc34)C(=O)[C@H](Cc3ccc(O)cc3)N2C(=O)CN1C` [Compound 102], the IC50 was 62 ± 17 µM. Same read-out and setting: the figure for `CN1CC(=O)N2[C@@H](Cc3ccc(O)cc3)C(=O)N(Cc3ccc(F)cc3F)C[C@@H]2N1C(=O)NCc1ccc(F)cc1` [Compound 200] is 8.6 ± 0.4 µM; for `CC(C)N(C)c1cccc([C@@H](C)N2C[C@H]3N(C(=O)CN(C)N3C(=O)NCc3ccccc3)[C@@H](Cc3ccc(O)cc3)C2=O)c1` [Compound 67] it is 6.8 µM.

As to `C=CCN1CC(=O)N2[C@@H](Cc3ccc(O)cc3)C(=O)N(Cc3cccc(OC(F)(F)F)c3)C[C@@H]2N1C(=O)NCc1ccccc1` [Compound 206], the 50% inhibitory concentration (IC50) was 1.3 ± 0.1 µM. On the same count and under the same terms, the result for `CCCN1CC(=O)N2[C@@H](Cc3ccc(O)cc3)C(=O)N(Cc3ccccc3)C[C@@H]2N1C(=O)NCc1ccccc1` [Compound 168] reads 3.5 ± 0.3 µM. The same measure, in the same setting: the result for `C=CCN1CC(=O)N2[C@@H](Cc3ccc(O)cc3)C(=O)N(Cc3cccc(N4CCCC4)c3)C[C@@H]2N1C(=O)NCc1ccccc1` [Compound 154] reads 3.2 ± 0.4 µM; that for `O=C1[C@H](Cc2ccc(O)cc2)N2C(=O)CON(C(=O)NCc3ccccc3)[C@H]2CN1Cc1cccc2cccnc12` [Compound 119], 8.8 ± 1.3 µM. Take `CN1CC(=O)N2[C@@H](Cc3ccc(O)cc3)C(=O)N(Cc3cccc(OCCN4CCOCC4)c3)C[C@@H]2N1C(=O)NCc1ccccc1` [Compound 130]: the IC50 worked out at 6.1 ± 0.4 µM. On the same count and under the same terms, the figure for `CN1CC(=O)N2[C@@H](Cc3ccc(O)cc3)C(=O)N(Cc3cccc4c3nnn4C)C[C@@H]2N1C(=O)NCc1ccccc1` [Compound 76] is 10.7 ± 2.5 µM. With `C=CCN1CC(=O)N2[C@@H](Cc3ccc(O)c(F)c3)C(=O)N(Cc3ccc(F)cc3)C[C@@H]2N1C(=O)NCc1ccccc1` [Compound 186], the IC50 was 3.6 ± 0.3 µM. With `C=CCN1CC(=O)N2[C@@H](Cc3ccc(O)cc3)C(=O)N(Cc3ccc(F)cc3F)C[C@@H]2N1C(=O)NCc1ccc(Cl)c(Cl)c1` [Compound 179], the 50% inhibitory concentration (IC50) was 2.3 ± 0.2 µM.

As to `CN1CC(=O)N2[C@@H](Cc3ccc(O)cc3)C(=O)N(Cc3cccc4c3cnn4CCN3CCOCC3)C[C@@H]2N1C(=O)NCc1ccccc1` [Compound 98], the IC50 stood at 14.4 ± 2.2 µM. Take `CN1CC(=O)N2[C@@H](Cc3ccc(O)cc3)C(=O)N(Cc3ccc4ccccc4c3)C[C@@H]2N1C(=O)NCc1ccccc1` [Compound 24]: the 50% inhibitory concentration (IC50) was 5 µM. On the same count and under the same terms, the result for `Cc1cccc(CN2C[C@H]3N(C(=O)CN(C)N3C(=O)NCc3ccccc3)[C@@H](Cc3ccc(O)cc3)C2=O)c1N(C)C` [Compound 48] reads 10.9 µM.
